The source of these data is patent publication US20260297542A1, “HERBICIDE RESISTANT PLANTS” (SYNGENTA CROP PROTECTION AG, priority 2023, published 2026).

Changes are numbered by the printed parent chain.

Common to all, as to experiment: E. coli hemG growth inhibition by herbicide, AtPPO1 variant
Holding throughout (type): cell-based
Common to all, as to conditions: read-out: percentage growth inhibition

Experiment [1] addresses T1, AtPPO1 L479M (Arabidopsis thaliana, UniProt P55826, L479M).
T1 construct: expressed in transfected cells; host or cells: E. coli BL21(DE3) hemG, pET24a plasmid
T1 sequence (P55826 35-537 L479M): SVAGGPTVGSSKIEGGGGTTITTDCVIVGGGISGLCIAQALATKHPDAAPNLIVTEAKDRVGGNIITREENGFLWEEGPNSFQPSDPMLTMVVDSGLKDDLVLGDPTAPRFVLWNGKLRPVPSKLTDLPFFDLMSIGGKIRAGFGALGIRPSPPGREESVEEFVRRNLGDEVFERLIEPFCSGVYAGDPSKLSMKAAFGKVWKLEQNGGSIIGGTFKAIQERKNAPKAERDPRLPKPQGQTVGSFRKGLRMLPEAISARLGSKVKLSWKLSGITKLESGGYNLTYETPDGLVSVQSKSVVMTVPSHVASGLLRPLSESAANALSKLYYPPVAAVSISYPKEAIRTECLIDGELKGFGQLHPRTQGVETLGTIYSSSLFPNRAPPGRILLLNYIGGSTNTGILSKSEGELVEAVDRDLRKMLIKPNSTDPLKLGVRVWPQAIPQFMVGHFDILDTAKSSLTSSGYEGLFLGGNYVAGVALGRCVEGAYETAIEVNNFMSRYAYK
Put shortly: (§1)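 AtPPO1 variants from a site-saturation library, codon-optimised and T7-driven in pET24a, were expressed in E. coli BL21(DE3) lacking hemG (hemG replaced by CmR). Growth in Terrific broth with 0.1 mM IPTG plus 6.25 ppm herbicide 0 or E, 0.78 ppm herbicide B, or DMSO was read as OD600 after 24 h at 37° C; inhibition was calculated against the DMSO culture.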

Experiment [2] deals with T2, AtPPO1 F478R (Arabidopsis thaliana, UniProt P55826, F478R).
T2 construct: expressed in transfected cells; host or cells: E. coli BL21(DE3) hemG, pET24a plasmid
T2 sequence (P55826 35-537 F478R): T1 sequence (P55826 35-537 L479M) with F444R, M445L
Put shortly:
as §1

Experiment [3] deals with T3, AtPPO1 F207Y (Arabidopsis thaliana, UniProt P55826, F207Y).
T3 construct: expressed in transfected cells; host or cells: E. coli BL21(DE3) hemG (hemG replaced by CmR), pET24a plasmid
T3 sequence (P55826 35-537 F207Y): T1 sequence (P55826 35-537 L479M) with F173Y, M445L
Put shortly:
as §1

Experiment [4] concerns the target T4, AtPPO1 Y426M (Arabidopsis thaliana, UniProt P55826, Y426M).
T4 construct: expressed in transfected cells; host or cells: E. coli BL21(DE3) hemG (pET24a, T7 promoter)
T4 sequence (P55826 35-537 Y426M): T1 sequence (P55826 35-537 L479M) with Y392M, M445L
In short, it runs like this: as §1

Consider `C#CCN1C(=O)C(F)(F)Oc2cc(F)c(-n3c(=O)n(C)c(=S)n(C)c3=O)cc21` [Herbicide B, trifludimoxazin], for which the inhibition (commonly the change of the read-out against control, counted positive when it falls) at 0.78 ppm in experiment [1] was 29%; in experiment [2], 23%; in experiment [3] it was 29%; in experiment [4] it was 7%.

`CCOC(=O)[C@]1(C)CC(c2cc(-n3c(=O)n(C)c(=S)n(C)c3=O)c(F)cc2Cl)=NO1` [Herbicide D, ethyl (5S)-3-[2-chloro-5-(3,5-dimethyl-2,6-dioxo-4-thioxo-1,3,5-triazinan-1-yl)-4-fluoro-phenyl]-5-methyl-4H-isoxazole-5-carboxylate]: the inhibition at 6.25 ppm in experiment [1] turned out to be 4%; in experiment [2], 30%; in experiment [3], 19%; in experiment [4] it was 25%.

Regarding `CC(C)N(C)S(=O)(=O)NC(=O)c1cc(-n2c(=O)cc(C(F)(F)F)n(C)c2=O)c(F)cc1Cl` [Herbicide E, saflufenacil], the inhibition at 6.25 ppm in experiment [1] came to 28%; in experiment [2], 61%; in experiment [3] it was 66%; in experiment [4], 17%.
